The values that follow come from US7727986B2, “Pesticide pyrimidinyloxy substituted phenylamidine derivatives” (Bayer CropScience AG, priority 2005, dated 2010).

Data set [1] in a line: logP by HPLC on reversed-phase column (C 18), EEC Directive 79/831 Annex V.A8. It counts as physicochemical. The conditions noted are these: HPLC, 0.1% aqueous formic acid and acetonitrile, 40° C.; pH 2.3. As to the method: Temperature: 40° C.; Mobile phases: 0.1% aqueous formic acid and acetonitrile; linear gradient from 10% acetonitrile to 90% acetonitrile.
Data set [2] deals with Phaedon cochleariae. Description: In vivo protective test on Phaedon cochleariae (PHAECO). The note with it: Chinese cabbage leaf-disks sprayed, infested with mustard beetle larvae; concentration not given. As to the method:
In vivo Protective Test on Phaedon cochleariae (PHAECO)
(§1) To produce a suitable preparation of active compound, 1 part by weight of active compound is mixed with the stated amount of solvent and emulsifier, and the concentrate is diluted with emulsifier-containing water to the desired concentration.
Chinese cabbage (Brassica pekinesis) leaf-disks are sprayed with a preparation of the active ingredient of the desired concentration. Once dry, the leaf disks are infested with mustard beetle larvae (Phaedon cochleariae).
After the specified period of time, mortality in % is determined. 100% means that all beetle larvae have been killed and 0% means that none of the beetle larvae have been killed.

The subject of data set [3] is Myzus persicae. Description: In vivo protective test on Myzus persicae (MYZUPE). The conditions noted are these: Chinese cabbage leaf-disks infected with green peach aphid, sprayed; concentration not given. As to the method: In vivo Protective Test on Myzus persicae (MYZUPE)
as §1
Chinese cabbage (Brassica pekinesis) leaf-disks infected with all instars of the green peach aphid (Myzus persicae), are sprayed with a preparation of the active ingredient at the desired concentration.
After the specified period of time, mortality in % is determined. 100% means that all aphids have been killed; 0% means that none of the aphids have been killed.

Data set [4] relates to Tetranychus urticae. Description: In vivo protective test on Tetranychus urticae (TETRUR). The conditions noted are these: French bean infested with two spotted spidermite, sprayed; concentration not given. As to the method: In vivo Protective Test on Tetranychus urticae (TETRUR)
as §1
French bean (Phaseolus vulgaris) which are heavily infested with all stages of the two spotted spidermite (Tetranychus urticae), are sprayed with a preparation of the active ingredient at the desired concentration.
After the specified period of time, mortality in % is determined. 100% means that all spider mites have been killed and 0% means that none of the spider mites have been killed.

`CCCN(C)C=Nc1cc(C)c(Oc2ccnc(Oc3cccc(Cl)c3C)n2)cc1C` [Compound 18] registered a logPa in data set [1] of 2.21. Also, in data set [2], the “activity (mortality)” value is “good activity”.

Regarding `CCCN(C)C=Nc1cc(C)c(Oc2ccnc(Oc3ccccc3)n2)cc1C` [Compound 36], the logPa in data set [1] turned out to be 1.87. Besides, in data set [3], the “activity (mortality)” value is “good activity”.

The molecule `CCN(C)C=Nc1cc(C)c(Oc2ccnc(N(C)C)n2)cc1C` [Compound 37] displayed a logPa in data set [1] of 0.66. Also, the “activity (mortality)” value in data set [4] is reported as “good activity”.

In data set [1], `Cc1cc(Oc2cc(C)c(N=CN(C)C(C)C)cc2C)nc(Cl)n1` [Compound 41] yielded a logPa of 1.57. Further, the “activity (mortality)” value in data set [3] is given as “good activity”.

`CCN(C)C=Nc1cc(C)c(Oc2ccnc(Oc3cccc(Cl)c3)n2)cc1C` [Compound 65] yielded a logPa in data set [1] of 2.04. Besides, the “activity (mortality)” value in data set [3] is given as “good activity”.
